Legend:
[1] = test system: Mycobacterium tuberculosis Erdman (autoluminescent); assay: total FIC90 (Loewe) at 90% inhibition, three-drug combination (log2); higher = more antagonistic
Protocol: (§1)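 DiaMOND equipotent three-drug combination dose responses (10 doses, 1.5- or 2-fold spacing, centred on IC90) against autoluminescent M. tuberculosis Erdman in 8 in vitro models. Read-out is OD600, or luminescence for the intracellular and dormancy models, normalised to untreated wells. Hill-fit Einf, AUC25 and GRinf are potency metrics; FIC50 and FIC90 are total Loewe fractional inhibitory concentrations as log2 (negative = synergy).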

[2] = test system: Mycobacterium tuberculosis Erdman (autoluminescent); assay: Einf, fitted maximum growth inhibition of three-drug combination (fraction); higher = stronger maximal inhibition
Protocol: as §1

[3] = test system: Mycobacterium tuberculosis Erdman (autoluminescent); assay: GRinf, maximum normalised growth rate inhibition (three-drug combination) (unitless (-1 to 1)); higher = less effect (negative = killing)
Protocol: as §1

[4] = test system: Mycobacterium tuberculosis Erdman (autoluminescent); assay: total FIC50 (Loewe) at 50% inhibition, three-drug combination (log2); higher = more antagonistic
Protocol: as §1

[5] = test system: Mycobacterium tuberculosis Erdman (autoluminescent); assay: AUC25, normalised area under dose response up to IC25 (three-drug combination) (fraction (0-1)); higher = more potent at low dose
Protocol: as §1

O=[N+]([O-])c1cn2c(n1)OC[C@@H](OCc1ccc(OC(F)(F)F)cc1)C2 [pretomanid] + NC(=O)c1cnccn1 [pyrazinamide] + CO[C@H]1/C=C/O[C@@]2(C)Oc3c(C)c(O)c4c(O)c(c(/C=N/N5CCN(C6CCCC6)CC5)c(O)c4c3C2=O)NC(=O)/C(C)=C\C=C\[C@H](C)[C@H](O)[C@@H](C)[C@@H](O)[C@@H](C)[C@H](OC(C)=O)[C@@H]1C [rifapentine]
Details	AUC25, [5]	Einf, [2]	GRinf, [3]	total FIC50, [4]	total FIC90, [1]
in vitro model: acidic pH 5.7, time point: constant (~7 days, model-specific)	0.0839	0.9	-0.227	-0.141	–
in vitro model: acidic pH 5.7, time point: terminal (~4-5 doublings, model-specific)	0.0799	0.992	-0.234	-0.0208	-0.284
in vitro model: intracellular J774, time point: constant = terminal	–	0.98	-0.184	–	0.00169

Details	AUC25, [5]	Einf, [2]	GRinf, [3]	total FIC50, [4]	total FIC90, [1]
in vitro model: butyrate, time point: constant (~7 days, model-specific)	0.101	0.889	0.102	0.0451	-0.0718
in vitro model: butyrate, time point: terminal (~4-5 doublings, model-specific)	0.0909	0.956	0.0745	0.0568	0.587
in vitro model: cholesterol 0.05 mM, time point: constant (~7 days, model-specific)	0.118	0.768	-0.296	–	–
in vitro model: cholesterol 0.05 mM, time point: terminal (~4-5 doublings, model-specific)	0.103	0.936	-0.415	1.28	–
in vitro model: cholesterol-high 0.2 mM, time point: constant (~7 days, model-specific)	0.0849	0.919	-0.211	0.553	–
in vitro model: cholesterol-high 0.2 mM, time point: terminal (~4-5 doublings, model-specific)	0.0594	0.999	-0.626	1.12	0.566
in vitro model: dormancy (butyrate + nitrate, low O2), time point: constant (~7 days, model-specific)	0.0875	0.881	0.197	0.097	0.142
in vitro model: dormancy (butyrate + nitrate, low O2), time point: terminal (~4-5 doublings, model-specific)	0.0996	0.995	-0.152	-0.593	0.838
in vitro model: standard 7H9 glycerol, time point: constant = terminal	0.0581	0.893	0.139	-0.0175	–
in vitro model: valerate, time point: constant (~7 days, model-specific)	0.0881	0.855	0.0565	0.0684	–
in vitro model: valerate, time point: terminal (~4-5 doublings, model-specific)	0.0574	0.918	0.0492	0.378	-0.054

O=[N+]([O-])c1cn2c(n1)OC[C@@H](OCc1ccc(OC(F)(F)F)cc1)C2 [pretomanid] + NC(=O)c1cnccn1 [pyrazinamide] + CO[C@H]1/C=C/O[C@@]2(C)Oc3c(C)c(O)c4c(O)c(c(/C=N/N5CCN(C)CC5)c(O)c4c3C2=O)NC(=O)/C(C)=C\C=C\[C@H](C)[C@H](O)[C@@H](C)[C@@H](O)[C@@H](C)[C@H](OC(C)=O)[C@@H]1C [rifampicin]
Details	AUC25, [5]	Einf, [2]	GRinf, [3]	total FIC50, [4]	total FIC90, [1]
in vitro model: acidic pH 5.7, time point: constant (~7 days, model-specific)	0.0685	0.907	-0.202	0.112	–
in vitro model: acidic pH 5.7, time point: terminal (~4-5 doublings, model-specific)	0.0533	0.988	-0.228	0.156	-0.637
in vitro model: intracellular J774, time point: constant = terminal	–	0.981	-0.237	–	-0.273

Details	AUC25, [5]	Einf, [2]	GRinf, [3]	total FIC50, [4]	total FIC90, [1]
in vitro model: butyrate, time point: constant (~7 days, model-specific)	0.1	0.875	0.153	-0.0322	–
in vitro model: butyrate, time point: terminal (~4-5 doublings, model-specific)	0.098	0.943	0.0978	-0.158	0.429
in vitro model: cholesterol 0.05 mM, time point: constant (~7 days, model-specific)	0.109	0.694	-0.0437	–	–
in vitro model: cholesterol 0.05 mM, time point: terminal (~4-5 doublings, model-specific)	0.0891	0.895	-0.0945	1.25	–
in vitro model: cholesterol-high 0.2 mM, time point: constant (~7 days, model-specific)	0.071	0.867	-0.142	0.75	–
in vitro model: cholesterol-high 0.2 mM, time point: terminal (~4-5 doublings, model-specific)	0.0574	0.997	-0.5	1.36	0.673
in vitro model: dormancy (butyrate + nitrate, low O2), time point: constant (~7 days, model-specific)	0.0775	0.863	0.209	-0.0806	-0.525
in vitro model: dormancy (butyrate + nitrate, low O2), time point: terminal (~4-5 doublings, model-specific)	0.0697	0.983	-0.11	-0.485	-0.0518
in vitro model: standard 7H9 glycerol, time point: constant = terminal	0.0634	0.897	0.147	-0.426	–
in vitro model: valerate, time point: constant (~7 days, model-specific)	0.0616	0.854	0.084	0.491	–
in vitro model: valerate, time point: terminal (~4-5 doublings, model-specific)	0.0376	0.933	0.0442	0.477	-0.0725

NC(=O)c1cnccn1 [pyrazinamide] + CO[C@H]1/C=C/O[C@@]2(C)Oc3c(C)c(O)c4c(O)c(c(/C=N/N5CCN(C6CCCC6)CC5)c(O)c4c3C2=O)NC(=O)/C(C)=C\C=C\[C@H](C)[C@H](O)[C@@H](C)[C@@H](O)[C@@H](C)[C@H](OC(C)=O)[C@@H]1C [rifapentine] + CO[C@H]1/C=C/O[C@@]2(C)Oc3c(C)c(O)c4c(O)c(c(/C=N/N5CCN(C)CC5)c(O)c4c3C2=O)NC(=O)/C(C)=C\C=C\[C@H](C)[C@H](O)[C@@H](C)[C@@H](O)[C@@H](C)[C@H](OC(C)=O)[C@@H]1C [rifampicin]
Details	AUC25, [5]	Einf, [2]	GRinf, [3]	total FIC50, [4]	total FIC90, [1]
in vitro model: acidic pH 5.7, time point: constant (~7 days, model-specific)	0.0803	0.896	-0.145	-0.178	–
in vitro model: acidic pH 5.7, time point: terminal (~4-5 doublings, model-specific)	0.0647	0.979	-0.174	-0.202	-1.03
in vitro model: intracellular J774, time point: constant = terminal	–	0.97	-0.213	–	-0.0544

Details	AUC25, [5]	Einf, [2]	GRinf, [3]	total FIC50, [4]	total FIC90, [1]
in vitro model: butyrate, time point: constant (~7 days, model-specific)	0.117	0.881	0.12	0.0365	1.12
in vitro model: butyrate, time point: terminal (~4-5 doublings, model-specific)	0.103	0.952	0.104	0.198	0.732
in vitro model: cholesterol 0.05 mM, time point: constant (~7 days, model-specific)	0.115	0.629	0.0861	–	–
in vitro model: cholesterol 0.05 mM, time point: terminal (~4-5 doublings, model-specific)	0.0851	0.89	-0.108	0.707	–
in vitro model: cholesterol-high 0.2 mM, time point: constant (~7 days, model-specific)	0.0773	0.925	-0.227	0.97	–
in vitro model: cholesterol-high 0.2 mM, time point: terminal (~4-5 doublings, model-specific)	0.0817	1	-0.793	1.26	1.04
in vitro model: dormancy (butyrate + nitrate, low O2), time point: constant (~7 days, model-specific)	0.083	0.871	0.235	-0.0928	-0.329
in vitro model: dormancy (butyrate + nitrate, low O2), time point: terminal (~4-5 doublings, model-specific)	0.0472	0.977	-0.125	-0.147	-0.16
in vitro model: standard 7H9 glycerol, time point: constant = terminal	0.0549	0.884	0.17	-0.259	–
in vitro model: valerate, time point: constant (~7 days, model-specific)	0.0552	0.833	0.0781	0.198	–
in vitro model: valerate, time point: terminal (~4-5 doublings, model-specific)	0.0295	0.925	0.0607	0.142	-0.0108

From the supplement of paper PMC8617591
